# Reference: patent publication US20150258108A1 (priority 2014, published 2015)
# “And” between values parts separate entries of the source, which are not always exact repeats. Identical values can stand only once. Like-named read-outs stand apart in the source and are kept apart here. Marks after values point to notes of the source that are not given here.
# Assays:
# [1] = system: human OPRK (κ-opioid receptor); test: biochemical; assay type: binding
# [2] = molecular target: T1, human OPRM (μ-opioid receptor) (Homo sapiens, UniProt P35372); conditions: cited from earlier work
# T1 sequence (P35372 whole entry): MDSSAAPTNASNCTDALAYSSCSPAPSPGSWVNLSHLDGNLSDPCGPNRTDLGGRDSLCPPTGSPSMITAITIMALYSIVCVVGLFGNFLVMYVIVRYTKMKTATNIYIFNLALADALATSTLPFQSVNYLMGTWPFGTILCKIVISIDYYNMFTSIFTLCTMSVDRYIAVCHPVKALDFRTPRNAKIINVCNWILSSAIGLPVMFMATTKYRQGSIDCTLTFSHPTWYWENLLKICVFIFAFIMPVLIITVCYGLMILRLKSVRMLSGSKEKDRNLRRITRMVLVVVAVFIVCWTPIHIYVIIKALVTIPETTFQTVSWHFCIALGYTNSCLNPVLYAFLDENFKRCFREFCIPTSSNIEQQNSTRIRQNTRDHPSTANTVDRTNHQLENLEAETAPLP
# [3] = molecular target: T2, human OPRM (Homo sapiens, UniProt P35372); parameters: expressed in transfected cells; host or cells: CHO-K1 (cell lines provided by Dr. Toll, Torrey Pines Institute); conditions: cited from earlier work
# T2 sequence (P35372 whole entry): as above
# [4] = molecular target: T2, human OPRM; test: biochemical; assay type: biochemical; parameters: expressed in transfected cells; host or cells: CHO-K1 (cell lines provided by Dr. Toll, Torrey Pines Institute)
# [5] = molecular target: T1, human OPRM (μ-opioid receptor); test: biochemical; assay type: binding; parameters: expressed in transfected cells; host or cells: CHO-K1 (cell lines provided by Dr. Toll, Torrey Pines Institute)
# [6] = molecular target: T3, human OPRK (κ-opioid receptor) (Homo sapiens, UniProt P41145); test: biochemical; assay type: binding; conditions: for Ki: read-out: Ki
# T3 construct: purchased PerkinElmer Life Sciences (Boston, Mass.)
# T3 sequence (P41145 whole entry): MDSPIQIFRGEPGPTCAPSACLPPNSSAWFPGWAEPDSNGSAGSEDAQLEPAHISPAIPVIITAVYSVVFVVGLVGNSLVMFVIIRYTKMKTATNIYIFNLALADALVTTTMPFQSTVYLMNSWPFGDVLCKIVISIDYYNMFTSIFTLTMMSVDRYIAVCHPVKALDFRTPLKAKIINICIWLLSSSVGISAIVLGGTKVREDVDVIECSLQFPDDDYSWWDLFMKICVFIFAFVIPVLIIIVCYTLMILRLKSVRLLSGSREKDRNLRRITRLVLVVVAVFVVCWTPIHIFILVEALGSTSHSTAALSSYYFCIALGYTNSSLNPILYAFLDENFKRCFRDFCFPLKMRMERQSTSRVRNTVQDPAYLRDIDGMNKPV
# [7] = molecular target: T4, OPRK (Homo sapiens, UniProt P41145); test: biochemical; parameters: purchased PerkinElmer Life Sciences (Boston, Mass.)
# T4 sequence (P41145 whole entry): as above
# [8] = molecular target: calf OPRK (Bos taurus, UniProt Q2KIP6); conditions: calf receptor, literature; cited from earlier work
# Sequence of calf OPRK (Q2KIP6 whole entry): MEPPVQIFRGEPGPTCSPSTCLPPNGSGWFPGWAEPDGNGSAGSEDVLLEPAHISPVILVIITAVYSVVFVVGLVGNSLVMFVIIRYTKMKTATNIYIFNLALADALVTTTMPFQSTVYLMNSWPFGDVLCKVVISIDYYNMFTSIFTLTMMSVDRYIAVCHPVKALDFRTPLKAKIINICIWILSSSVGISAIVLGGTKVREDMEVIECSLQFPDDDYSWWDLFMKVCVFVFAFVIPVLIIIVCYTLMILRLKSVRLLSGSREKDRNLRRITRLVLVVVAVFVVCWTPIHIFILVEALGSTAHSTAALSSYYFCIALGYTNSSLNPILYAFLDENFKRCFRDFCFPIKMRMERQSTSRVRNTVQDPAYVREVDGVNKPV
# [9] = molecular target: calf OPRM (Bos taurus, UniProt P79350); conditions: calf receptor, literature, cited from earlier work
# Sequence of calf OPRM (P79350 whole entry): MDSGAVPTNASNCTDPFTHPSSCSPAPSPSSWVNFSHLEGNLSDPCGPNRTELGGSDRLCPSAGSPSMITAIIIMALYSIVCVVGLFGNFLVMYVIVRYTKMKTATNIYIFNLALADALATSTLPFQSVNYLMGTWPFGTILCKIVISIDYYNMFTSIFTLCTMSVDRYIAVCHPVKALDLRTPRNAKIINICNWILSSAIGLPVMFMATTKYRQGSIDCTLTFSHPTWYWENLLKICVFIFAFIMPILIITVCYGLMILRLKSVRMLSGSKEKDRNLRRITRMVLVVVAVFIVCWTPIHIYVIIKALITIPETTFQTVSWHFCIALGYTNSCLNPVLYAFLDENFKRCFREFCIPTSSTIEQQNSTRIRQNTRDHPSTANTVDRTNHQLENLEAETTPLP
# [10] = molecular target: OPRD: opioid receptor delta (Bos taurus, UniProt F1N083); conditions: literature (Pearl, Herrick-Davis et al. 1995); cited from earlier work
# Sequence of OPRD: opioid receptor delta (F1N083 1-372): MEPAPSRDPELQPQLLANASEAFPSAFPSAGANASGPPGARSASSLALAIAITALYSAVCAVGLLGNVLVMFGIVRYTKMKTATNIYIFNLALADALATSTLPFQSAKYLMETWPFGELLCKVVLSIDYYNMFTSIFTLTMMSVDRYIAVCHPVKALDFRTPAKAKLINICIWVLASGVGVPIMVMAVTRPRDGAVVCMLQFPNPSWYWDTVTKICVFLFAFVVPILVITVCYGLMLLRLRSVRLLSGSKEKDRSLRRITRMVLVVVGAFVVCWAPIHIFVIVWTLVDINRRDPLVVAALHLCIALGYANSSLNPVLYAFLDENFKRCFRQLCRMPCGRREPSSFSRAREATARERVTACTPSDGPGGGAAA
# [11] = molecular target: T4, OPRK; test: cell-based; parameters: host or cells: CHO-K1; conditions: OPRK, inhibitory component; pKi-pKe
# [12] = Ascending single-dose pharmacokinetics of noribogaine in healthy volunteers; conditions: for Cmax / Tmax / AUC0-216 / AUC0-∞ / t1/2: fasted healthy males, mean (SD), n = 6
# [13] = molecular target: T2, human OPRM; test: cell-based; assay type: cell-based; parameters: host or cells: CHO-K1
# [14] = OPRK, [3H]-U69,593 binding, This work
# [15] = 30 mg noribogaine single oral dose
# [16] = 30 mg noribogaine single oral dose, plasma
# [17] = 60 mg noribogaine single oral dose
# [18] = 60 mg noribogaine single oral dose, plasma
compound,measurement,setting,value
NC(N)=Nc1ccc2c3c([nH]c2c1)[C@@H]1Oc2c(O)ccc4c2[C@@]12CCN(CC1CC1)[C@H](C4)[C@]2(O)C3 [6′GNTI],Specificity ΔpKi,[1]; ΔpKi = pKi(OPRK)-pKi(OPRM),1.84
same,Ki,[2],82 nM
same,pKi,[2],7.1
same,EC50,"[3]; OPRM, activation, literature",> 1000 nM
same,Efficacy,"[3]; OPRM, activation, literature",0~ %
"COCC[C@H]1CC2CN3CCc4c([nH]c5ccccc45)[C@](C(=O)OC)(C2)[C@H]13 [18-MC, 18-methoxycoronaridine]",Efficacy (Emax),[4],<5%
same,stimulation of the OPRM G-protein pathway,[4],failed to stimulate
same,pKi,[5],5.6*
same,Ki,[5]; read-out: Ki,2260 nM and 2360 nM
same,affinity at human OPRK versus OPRM,[1]; this work,equi-affine
same,pKi,[6]; [14],5.7*
same,Ki,[6]; [14],1800 nM
same,Ki,"[6]; human OPRK, [3H]-U69,593",1840 ± 120 nM
same,reported selectivity at OPRM,[2],5 ×
same,Efficacy (Emax),[7],<5%
same,pEC50,[7],4.8
same,"pEC50, (Ke): pKe",[7],5.3
same,stimulation of [35S]GTPγS binding to OPRK,[7],failed to stimulate
same,EC50,[7]; read-out: EC50,~16000 nM
same,Ki,[8],5100 nM
same,pKi,[8],5.3*
same,Ki,[9]; read-out: Ki,1100 nM
same,pKi,[9],6.0*
"C[C@@H](NC(=O)[C@@H](N)Cc1ccc(O)cc1)C(=O)NCC(=O)N(C)[C@@H](Cc1ccccc1)C(=O)NCCO [DAMGO, [D-Ala2, NMe-Phe4, Gly-ol5]-enkephalin]",Specificity ΔpKi,[1]; ΔpKi = pKi(OPRK)-pKi(OPRM),<−3
"CC[C@H]1CC2C[C@H]3c4[nH]c5ccc(OC)cc5c4CCN(C2)C13 [Ibogaine, reference compound]",stimulation of the OPRM G-protein pathway,[4],failed to stimulate
same,Emax,[4]; read-out: Efficacy (Emax),-2.9%
same,Ki,[5],6920 ± 830 nM
same,Ki at OPRD,[10],N.Q.)
same,Ki,[9],11000 nM
same,pKi,[9],5.0*
"C=C1CC[C@@]2(O)[C@H]3Cc4ccc(O)c5c4[C@@]2(CCN3CC2CC2)[C@H]1O5 [Nalmefene, reference compound]",Specificity ΔpKi,[1]; ΔpKi = pKi(OPRK)-pKi(OPRM),1.1
"Oc1ccc2c3c1O[C@H]1c4[nH]c5c(c4C[C@@]4(O)[C@@H](C2)N(CC2CC2)CC[C@]314)C[C@@]1(O)[C@H]2Cc3ccc(O)c4c3[C@@]1(CCN2CC1CC1)[C@H]5O4 [NorBNI, nor-binaltorphimine, reference compound]",Specificity ΔpKi,[1]; ΔpKi = pKi(OPRK)-pKi(OPRM),2.0
same,e-coupling,[11],0.27
CC[C@H]1C[C@@H]2C[C@H]3c4[nH]c5ccc(OC6OC(C(=O)O)C(O)C(O)C6O)cc5c4CCN(C2)[C@@H]13 (stereo partly shown) [Noribogaine glucuronide],Cmax,[12]; [15],1.8 (0.6) ng/ml
same,Tmax,[12]; [15],3.0 (0.6) hr
same,AUC0-216,[12]; [16],25.7 (9.1) ng · hr/ml
same,AUC0-∞,[12]; [16],25.8 (9.3) ng · hr/ml
same,t1/2,[12]; [16],20.6 (4.9) hr
same,Cmax,[12]; [17],4.1 (1.2) ng/ml
same,Tmax,[12]; [17],3.8 (1.2) hr
same,AUC0-216,[12]; [18],65.0 (21.5) ng · hr/ml
same,AUC0-∞,[12]; [18],67.1 (21.9) ng · hr/ml
same,t1/2,[12]; [18],23.1 (3.0) hr
same,time of peak concentrations after oral noribogaine dosing,"[12]; across dose groups, healthy volunteers",3 to 4 h
same,Mean half-life,"[12]; across dose groups, healthy volunteers, plasma",21 to 23 h
same,proportion of noribogaine glucuronide Cmax and AUC relative to noribogaine,"[12]; both dose groups (30 mg, 60 mg)",3-4%
same,time by which detected in all subjects,"[12]; plasma, 30 mg and 60 mg noribogaine dose groups",≤ 0.75 h
[Met]-Enkephalin [reference compound],Efficacy,[13],100%
same,e-coupling,[13],1.94
same,e-coupling,[4],1.8
same,Specificity ΔpKi,[1],<−3
same,Efficacy,[3],~95%
